Drawing on ChEMBL document CHEMBL3507680, “University of Dundee, Gates Library screen for HepG2 cell viability”, this text covers cytotoxicity for 98 molecules.

The nature of the series: Human HepG2 cell viability assay in 384 well format. The series is classed as toxicity, cell-based. More on the design: dose 125 nL, time 70.5 hour; concentration not given beside the values. The following applies: HepG2 cells, read-out: Inhibition.
Turning to `CN(C)C(=O)Cc1ccc(NC(=O)NC2CCCC2)cc1`, the cytotoxicity at 70.5 h is -7.5%.

Consider `COc1ccc(CN2CC[C@H](c3nnc(-c4ccco4)o3)C2)cc1`, for which the cytotoxicity at 70.5 h is 23%.

On to `N#Cc1ccc(OC2CCN(C(=O)c3ccc4c(c3)OCO4)CC2)nc1`, for which the cytotoxicity at 70.5 h stood at 17.3%. Under `Cn1cccc1CN1CCc2c(nc(-c3ccccn3)[nH]c2=O)C1` stands -2.89%; under `O=C(CCc1cc2n(n1)CCCN(CCc1ccccc1)C2)NC1CC1`, -11%; under `CN1CCC(c2nnc(CN3CCC(O)CC3)n2C)CC1`, -5.78%.

With `O=C(NS(=O)(=O)c1cccc(F)c1)c1ccccc1F`, the cytotoxicity at 70.5 h is 13.1%.

Regarding `CC(=O)N(Cc1ncc(C)o1)C1CCN(CCn2cccn2)C1` (stereo not drawn), the cytotoxicity at 70.5 h is 9.96%. Under `CN1CCCN(C[C@@H]2CN(C(=O)N3CCOCC3)C[C@@H]2CO)CC1` stands -3.11%; under `Cc1cn2c(CN(C)C(=O)c3cccnc3O)c(C)nc2s1`, -4.29%; under `C[C@H]1C[C@@H]2CCN(C(=O)c3ccccn3)C[C@H]2O1`, -2.22%.

As to `O=C(CCN1CCC(c2cc3ccccc3[nH]2)CC1)N1CCOCC1`, the cytotoxicity at 70.5 h was -1.25%. As to `Cc1nc(CN2CCCC(NCCOc3ccccc3C#N)C2)no1` (stereo not drawn), the cytotoxicity at 70.5 h was -2.51%. Turning to `CC(C)COCCC(=O)NS(=O)(=O)c1ccc(Cl)s1`, the cytotoxicity at 70.5 h was -16.7%.

On to `Cc1cnn(Cc2cc(F)ccc2F)c1NC(=O)C1COCCO1` (stereo not drawn), for which the cytotoxicity at 70.5 h was -0.231%.

Turning to `CC(C)(C)C(=O)NCCc1cc(N2CCOCC2)nc(NC2CC2)n1`, the cytotoxicity at 70.5 h was -9.36%. Under `Cn1cnnc1C1CCN(c2nc3ccccc3o2)CC1` stands -5.83%.

For `C=C(C)COc1cccc(CNC(CC(C)C)c2ncnn2C)c1` (stereo not drawn), the cytotoxicity at 70.5 h is -3.16%. Under `Cc1nn(C)c(C)c1CNC(=O)CCn1ncc2c(Cl)cccc21` stands -1.2%. Under `CNc1nc2c(c(C(=O)N3CCCC3)n1)CN(C(=O)CCSC)CC2` stands -1.55%; under `CN(Cc1ccco1)C(=O)CN1CCCC1Cn1cccn1` (stereo not drawn), -3.69%.

With `Cc1ccc(C(=O)Nc2nc(C)no2)cc1`, the cytotoxicity at 70.5 h was -4.79%. Under `O=C(c1cc(-c2cn[nH]c2)nc2cc(F)ccc12)N1CCS(=O)(=O)CC1` stands -13.7%; under `CN1C[C@H]2CNC[C@@]2(C(=O)NC2CCN(c3ncccc3C#N)CC2)C1`, 1.46%; under `CNC(=O)C1(CCCc2cnccn2)CCN1Cc1ccc(C)cc1` (stereo not drawn), -5.64%.

Consider `CC(C)CN1CCN(C(=O)c2cccnc2-n2cncn2)CC1`, for which the cytotoxicity at 70.5 h worked out at 11.2%.

In the case of `CNS(=O)(=O)c1ccc(CNC(=O)N(CC(C)C)C(C)C)cc1`, the cytotoxicity at 70.5 h was -96.5%. Turning to `Cc1cccc2[nH]c(C3CCN(C(=O)c4cnc(O)cc4O)CC3)nc12`, the cytotoxicity at 70.5 h was 22.7%. Take `CCC(CC)C(=O)N1CCC2(CC1)c1ccccc1[C@@H](OC)[C@@H]2O`: the cytotoxicity at 70.5 h is -8.24%.

Regarding `CS(=O)(=O)CCSCc1ccc(Br)c(F)c1`, the cytotoxicity at 70.5 h is -1.55%. Under `COCCN1CCN(C(=O)C[C@@H]2C[C@@H](C(C)C)[C@H](CC#N)C=C2C)CC1` stands 1.71%; under `COCCC(=O)N1CC2(CCN(Cc3ccoc3)C2)C1`, 33.7%. Take `Fc1cnc(N2CCOCC3(CCCNC3)C2)nc1` (stereo not drawn): the cytotoxicity at 70.5 h was 12.2%. Under `O=S(=O)(N(Cc1ccccn1)C1CC1)N1CCCC1c1ccco1` (stereo not drawn) stands -8.96%. With `CC(=O)NCC1CCC2(CCN(c3ncnc4oc(C)nc34)CC2)O1` (stereo not drawn), the cytotoxicity at 70.5 h is 21.7%. For the molecule `COCC(=O)N1CCC2(CC1)CN(S(C)(=O)=O)Cc1ccccc1O2`, the cytotoxicity at 70.5 h is -0.505%.

In the case of `O=C(c1cn(CC(=O)N2CCCC2)c2ccccc12)C1CC1`, the cytotoxicity at 70.5 h is -2.27%. Under `CCCNC(=O)c1cnc(N(C)C)nc1COC` stands -5.33%. Consider `CCc1c(C(=O)O)nnn1-c1cc(C)cc(C)c1`, for which the cytotoxicity at 70.5 h was -18.5%. Under `CS(=O)(=O)c1cccc(S(=O)(=O)NCCCN2CCNC(=O)C2)c1` stands -5.37%; under `NS(=O)(=O)CCNC(=O)c1cc(Br)c2c(c1)OCCO2`, -10.7%; under `COC(=O)CCCNC(=O)COc1ccccc1C(F)(F)F`, -6.88%. With `CN(C(=O)c1cccc(C#N)c1)c1nnc(C2CCOC2)s1` (stereo not drawn), the cytotoxicity at 70.5 h was -7.42%. Under `Cc1noc(C)c1C1CCCN1CCC(=O)N1CCc2ccccc2C1` (stereo not drawn) stands -13.3%.

As for `CNS(=O)(=O)Cc1ccc(CNC(=O)Nc2cn[nH]c2)cc1`, the cytotoxicity at 70.5 h was -11.3%. Under `C[C@@H](O)CNC(=O)c1nc(CC(=O)Nc2ccccc2)no1` stands -19.3%; under `NC(=O)CCNC(=O)Cc1cccc(I)c1`, 16.7%. Under `N#Cc1cccnc1NCc1cccc(C(=O)NCC2CCCCO2)c1` (stereo not drawn) stands -10.4%.

`O=C(C1CCOC1)N1CCC2(CCN(Cc3nccs3)CC2)CC1` (stereo not drawn): the cytotoxicity at 70.5 h was -15.1%. Under `N#Cc1ccc(CCC(=O)N2CCC(CN3CCOCC3)CC2)cc1` stands 23.1%; under `Cc1ccc2nc(-c3cnc(N)nc3)cc(C(=O)N(C)C)c2c1`, 1.63%; under `Fc1ccc2c(c1)C(NCc1nnc3n1CCCCC3)CCCO2` (stereo not drawn), 3.88%. Under `CC(C)CCN(c1cn[nH]c1)S(=O)(=O)c1cccc(C#N)c1` stands 18.2%. Under `COc1ccccc1OCCN1CCCC(c2noc(C3CC3)n2)C1` (stereo not drawn) stands -0.413%; under `c1cnc(NCc2nnn3c2CN(CC2CC2)CCC3)nc1`, -4.25%.

For `COc1ccc(-n2ccc(C(=O)NCCn3ccnc3)n2)cc1`, the cytotoxicity at 70.5 h was -8.04%.

In the case of `Cc1ccc(C(=O)N2CC[C@@H]3[C@H]2CCC(=O)N3CC2CC2)o1`, the cytotoxicity at 70.5 h is -0.589%. Under `Cc1ncc(CNC(=O)Cc2ccsc2)c(C2CCCN2C)n1` (stereo not drawn) stands -5.12%; under `CCc1cnc(CNC(=O)N2CCCC(C(=O)NC)C2)s1` (stereo not drawn), 12.5%; under `CS(=O)(=O)N1CCCC(C(=O)Nc2cnn(Cc3ccc(F)cc3)c2)C1` (stereo not drawn), 0.36%. Under `Cc1cc(C)n(CC2CN(CC(=O)Nc3cccnc3)CCO2)n1` (stereo not drawn) stands -4.57%; under `COc1ccc(Cc2cccc(C3CCN(C)CC3)n2)cc1`, -6.68%; under `COc1ccc(CNC2CCN(c3ccccc3)C2)c(OC)c1OC` (stereo not drawn), 19.7%. Under `CN(C)CCOCc1nnc2n1CCN(Cc1ccoc1)CC2` stands 36.2%. Regarding `CN(C)c1ccc(C(=O)Nc2ccn(CCc3ccncc3)n2)cc1`, the cytotoxicity at 70.5 h worked out at 15%. Under `Cc1ccsc1CNC(=O)NC(C)c1ccc2c(c1)CCC(=O)N2` (stereo not drawn) stands -13.4%. Under `Fc1cc(Oc2ccc(C(F)(F)F)cn2)cc(F)c1CN1CCCC1` stands -4.12%; under `CC[C@@]1(O)CCN(C(=O)c2cccc3cc(C)oc23)C[C@H]1O`, 6.9%.

On to `CS(=O)(=O)N1CCC(C(=O)NC(Cc2ccsc2)c2cccnc2)CC1` (stereo not drawn), for which the cytotoxicity at 70.5 h came to 23.2%. Under `Cc1ncccc1C(=O)Nc1cccc(C[S+](C)[O-])c1C` (stereo not drawn) stands 0.697%. With `Cc1cc(C(=O)N2C[C@@H](CN3CCCCC3)[C@@H](CO)C2)ccc1O`, the cytotoxicity at 70.5 h is -5.69%. On to `O=C(C1CCC1)N1CCN(Cc2ccsc2)[C@H]2CS(=O)(=O)C[C@H]21`, for which the cytotoxicity at 70.5 h is -0.678%. `O=C(O)CC1CN(S(=O)(=O)c2cccc(F)c2)c2ccccc21` (stereo not drawn): the cytotoxicity at 70.5 h is 22.7%.

Take `Cc1ccn(-c2ccc(NCc3ccnc(N4CCCCC4)c3)nn2)n1`: the cytotoxicity at 70.5 h is -10.5%. Turning to `CCn1cc(C(=O)Nc2ccc(C)cc2C(=O)NC)cn1`, the cytotoxicity at 70.5 h is -3.07%. Under `COCCCC1(CO)CCCN(CCOC)C1` (stereo not drawn) stands -4.83%; under `CC(C)n1cc(-c2nc3cc(S(=O)(=O)N4CCCC4)ccc3n2C)cn1`, -25.1%; under `COCCCC1CCCN(C(=O)CCc2csc(N)n2)C1` (stereo not drawn), -11.8%. Under `COc1cc(N2CC3(CCN(c4ncccn4)C3)C2)ncn1` stands -9.27%; under `Cc1cccc2nc(-c3nc4c([nH]3)CCCNC4=O)cn12`, 16%.

On to `CCc1c(C)nc(SCc2ccccn2)[nH]c1=O`, for which the cytotoxicity at 70.5 h was -5.97%. Under `Cn1nccc1-c1ncc2c(c1C(=O)O)CCN(Cc1ccncc1)C2` stands -0.712%; under `CNS(=O)(=O)CCNC(=O)[C@@]12CNC[C@@H]1CN(C1CCCC1)C2`, -0.951%. On to `CNC(=O)[C@H]1C[C@@H]2CN(C(=O)NC(C)C)C[C@H]1O2`, for which the cytotoxicity at 70.5 h was 23%.

Take `C[C@@H]1CN(C(=O)CCN2CCCC2)CC[C@@]1(O)C1CCC1`: the cytotoxicity at 70.5 h was determined as 1.37%. Under `CCOc1ccccc1CNC(=O)N1CCC(n2cncn2)CC1` stands -11.8%; under `CCNc1cc2c(nn1)CCN(C(=O)c1ccc(CNC(C)=O)o1)C2`, -5.9%; under `CC(C)(O)CNC(=O)NCc1nccn1CCc1ccccc1`, -1.1%. For the molecule `CCCn1ccc2cc(NC(=O)CC3CCCO3)ccc21` (stereo not drawn), the cytotoxicity at 70.5 h is -5.13%. Under `O=C(CN1CCC[C@@H]1C(=O)O)NCCOc1cccc(C(F)(F)F)c1` stands -6.55%. Under `CC(Nc1nccc(CCC(F)(F)F)n1)c1nc(-c2ccccn2)no1` (stereo not drawn) stands -2.61%.

In the case of `CNc1nc2c(s1)C(c1c(F)cccc1Cl)CC(=O)N2` (stereo not drawn), the cytotoxicity at 70.5 h is -6.14%. As for `Cc1nn(C)cc1S(=O)(=O)NCC(c1ccccc1Cl)N1CCCC1` (stereo not drawn), the cytotoxicity at 70.5 h was -6.74%. Under `CCNc1ncc(-c2cc(-c3ccn(C)c3)nc(N)c2C#N)cn1` stands -11.6%; under `COCCSCC(=O)NC1(c2cccc(Br)c2)CC1`, -2.67%; under `O=C(NC1CCN(c2cccc(C(F)(F)F)n2)CC1)C1CC1`, 23.1%. For `CCCN1CCC(C(=O)NCCN(CC)c2ccccc2C)CC1`, the cytotoxicity at 70.5 h came to 17.6%. Under `Cc1nc[nH]c1CN1CCn2nc(CN3CC[C@H](F)C3)cc2C1` stands -8.01%.
